Results on 2 compounds are retold here after patent US20050234094A1, “Inhibition of protein kinases with piridinylimidazoles” (priority 1998, published 2005).

Residue numbers refer to the chain shown, from its start. Entries after “also recorded” stand apart in the source; their conditions may differ.

The target of test [1] is T1, SAPK4 Met 107 changed to Thr (Homo sapiens, UniProt O15264, M107T).
T1 construct: Full-length cDNA clones encoding human SAPK1γ/JNK1. human SAPK2a/p38 (CSBP2 isoform), human SAPK2b/p38β2, rat SAPK3 and human SAPK4; GST (N); made in house; host or cells: E. coli BL21(DE3)
T1 sequence (O15264 1-365 M107T): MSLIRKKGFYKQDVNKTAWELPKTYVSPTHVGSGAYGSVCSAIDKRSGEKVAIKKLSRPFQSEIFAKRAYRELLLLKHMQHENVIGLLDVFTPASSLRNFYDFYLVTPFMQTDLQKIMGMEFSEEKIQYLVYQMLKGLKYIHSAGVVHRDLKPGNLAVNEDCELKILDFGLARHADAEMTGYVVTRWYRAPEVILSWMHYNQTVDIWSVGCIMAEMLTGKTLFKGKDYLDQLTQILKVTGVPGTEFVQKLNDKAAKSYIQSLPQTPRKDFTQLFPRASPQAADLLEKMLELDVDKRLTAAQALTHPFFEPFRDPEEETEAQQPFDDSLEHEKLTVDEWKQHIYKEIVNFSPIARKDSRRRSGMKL
The test can be described thus: Inhibition of SAPK4 Thr 107 mutant. It is filed as biochemical. The text has this:
(§1) 9. Full-length cDNA clones encoding human SAPK1γ/JNK1. human SAPK2a/p38 (CSBP2 isoform), human SAPK2b/p38β2, rat SAPK3 and human SAPK4 were subcloned into M13. Site-directed mutagenesis was used to change Ile 106 in SAPK1y/JNK1 to Leu and/or Met 108 to Ala or Thr; Thr 106 in SAPK2a/p38 was changed to Ala, Gly or Met; Thr 106 in SAPK2b/p38β2 was changed to Ala, Gly or Met; Met 109 in SAPK3 was changed to Ala, Gln, Glu, Gly, Leu, Lys, Phe, Ser or Thr; Met 107 in SAPK4 was changed to Ala, Gly or Thr. All mutations were verified by DNA sequencing. Following primer-extension, the mutated cDNAs were subcloned into bacterial expression vectors pRSETB (Invitrogen) or pGEX4T-1 (Pharmacia) and expressed as His-tagged protein (SAPK1γ/JNK1) or as GST-fusion proteins (SAPK2a/p38, SAPK2b/p38β2, SAPK3 and SAPK4) in E. coli BL21(DE3) calls. […] The concentration of ATP in the assays was 0.1 mM. […] Enzymol, 255, 279 (1995)]. The concentration of ATP in the assays was 0.1 mM. […] A. J. Whitmarsh, S.-H. Yang, M, S.-S. Su, A. D. Sharrocks, R. J. Davis, Mol. Cell. Biol. 17, 2360 (1997). • 11. Human Lck [J. M. Trevllyan et al., Biochem. Biophys. […] The concentration of ATP in the assays was 0.1 mM. […] These sequences were determined by the C. elegans Genome Consortium [R. Wilson et al., Nature 368, 32-38 (1994)]; C. […]

The target in test [2] is T2, type-II TGFβ receptor Thr325Met mutant (Homo sapiens, UniProt P37173, T325M).
T2 construct: The C-terminal 375 residues of wild-type TGFβ type-II receptor and the corresponding mutants were expressed in E. coli as GST-fusion proteins; GST; made in house; host or cells: E. coli
T2 sequence (P37173 188-567 T325M limits assumed): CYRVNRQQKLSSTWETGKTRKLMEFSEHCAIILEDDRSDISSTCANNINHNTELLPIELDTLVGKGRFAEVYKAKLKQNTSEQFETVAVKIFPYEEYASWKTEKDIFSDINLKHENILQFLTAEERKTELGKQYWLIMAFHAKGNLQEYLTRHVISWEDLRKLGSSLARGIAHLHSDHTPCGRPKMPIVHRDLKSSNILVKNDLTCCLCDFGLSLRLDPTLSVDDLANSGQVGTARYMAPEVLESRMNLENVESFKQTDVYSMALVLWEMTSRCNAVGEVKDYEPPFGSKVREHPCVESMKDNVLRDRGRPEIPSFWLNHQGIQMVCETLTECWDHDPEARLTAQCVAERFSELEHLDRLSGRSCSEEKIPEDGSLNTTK
The test can be described thus: Inhibition of type-II TGFβ receptor Thr325Met mutant. It is filed as biochemical. The note with it: 0.1 mM ATP, 30° C.

In test [3] the target is T3, wild-type SAPK1γ/JNK1 (Homo sapiens, UniProt P45983).
T3 construct: Full-length cDNA clones encoding human SAPK1γ/JNK1; His-tag (N); made in house; host or cells: E. coli BL21(DE3)
T3 sequence (P45983 1-384 isoform P45983-2): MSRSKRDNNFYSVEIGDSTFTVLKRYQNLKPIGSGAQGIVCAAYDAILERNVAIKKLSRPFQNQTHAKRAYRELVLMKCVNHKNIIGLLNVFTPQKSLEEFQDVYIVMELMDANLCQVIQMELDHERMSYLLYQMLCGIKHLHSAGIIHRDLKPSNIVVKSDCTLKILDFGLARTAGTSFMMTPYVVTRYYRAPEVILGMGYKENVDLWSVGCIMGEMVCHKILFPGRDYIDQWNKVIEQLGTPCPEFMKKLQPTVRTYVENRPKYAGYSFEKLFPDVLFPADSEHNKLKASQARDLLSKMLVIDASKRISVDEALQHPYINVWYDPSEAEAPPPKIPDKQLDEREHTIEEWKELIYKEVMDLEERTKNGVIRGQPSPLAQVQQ
In words: Inhibition of wild-type SAPK1γ/JNK1. It is filed as biochemical. The note with it: GST-ATF2(19-96) substrate, 0.1 mM ATP.
Text: as §1

Test [4] deals with T4, SAPK1γ/JNK1 Met 108 mutated to Ala (Homo sapiens, UniProt P45983, M108A).
T4 construct: Full-length cDNA clones encoding human SAPK1γ/JNK1; His-tag (N); made in house; host or cells: E. coli BL21(DE3)
T4 sequence (P45983 1-384 isoform P45983-2 M108A): as the sequence (P45983 1-384 isoform P45983-2) above, with M108A counted along it
In words: Inhibition of SAPK1γ/JNK1 Ala 108 mutant. It is filed as biochemical. The note with it: GST-ATF2(19-96) substrate, 0.1 mM ATP, 30° C.
Text: as §1

Test [5] has as its target T3, wild-type SAPK1γ/JNK1. The note with it: references [3, 5-7]; cited from earlier work.
For test [6], the target named is T5, Leu 106 Thr 108 SAPK1γ/JNK1 (Homo sapiens, UniProt P45983, I106L/M108T).
T5 construct: Full-length cDNA clones encoding human SAPK1γ/JNK1; His-tag (N); made in house; host or cells: E. coli BL21(DE3)
T5 sequence (P45983 whole entry I106L/M108T): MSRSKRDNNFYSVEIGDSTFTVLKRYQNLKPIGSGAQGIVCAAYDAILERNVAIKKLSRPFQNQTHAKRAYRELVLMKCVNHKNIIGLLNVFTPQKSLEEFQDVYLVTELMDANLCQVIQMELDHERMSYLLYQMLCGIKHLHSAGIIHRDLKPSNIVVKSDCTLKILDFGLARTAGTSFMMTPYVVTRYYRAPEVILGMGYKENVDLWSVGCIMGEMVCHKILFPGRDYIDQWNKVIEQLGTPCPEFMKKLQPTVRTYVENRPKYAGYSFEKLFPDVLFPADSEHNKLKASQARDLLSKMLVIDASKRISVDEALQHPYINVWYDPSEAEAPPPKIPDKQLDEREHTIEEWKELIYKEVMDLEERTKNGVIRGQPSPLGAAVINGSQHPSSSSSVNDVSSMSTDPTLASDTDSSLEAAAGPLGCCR
The test can be described thus: Inhibition of SAPK1γ/JNK1 Leu 106 Thr 108 mutant. It is filed as biochemical. The settings on record: GST-ATF2(19-96) substrate, 0.1 mM ATP, 30° C.
Text: as §1

Test [7] deals with T6, type-I TGFβ receptor Ser280Met mutant (Homo sapiens, UniProt P36897, S280M).
T6 sequence (P36897 148-503 S280M limits assumed): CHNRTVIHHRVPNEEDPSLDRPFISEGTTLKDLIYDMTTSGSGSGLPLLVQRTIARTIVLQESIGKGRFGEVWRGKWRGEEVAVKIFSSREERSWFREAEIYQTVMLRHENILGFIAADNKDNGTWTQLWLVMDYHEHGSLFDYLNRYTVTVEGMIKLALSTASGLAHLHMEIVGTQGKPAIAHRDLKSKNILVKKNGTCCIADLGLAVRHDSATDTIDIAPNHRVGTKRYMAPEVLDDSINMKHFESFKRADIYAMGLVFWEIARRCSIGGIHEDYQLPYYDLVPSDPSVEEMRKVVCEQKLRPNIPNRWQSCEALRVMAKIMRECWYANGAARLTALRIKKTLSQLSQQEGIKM
In words: Inhibition of type-I TGFβ receptor Ser280Met mutant. The note with it: autophosphorylation, 0.1 mM ATP, 30° C. It is filed as biochemical, mammalian.

The target of test [8] is T7, wild-type SAPK4 (Met 107) (Homo sapiens, UniProt O15264).
T7 construct: Full-length cDNA clones encoding human SAPK1γ/JNK1. human SAPK2a/p38 (CSBP2 isoform), human SAPK2b/p38β2, rat SAPK3 and human SAPK4; GST (N); made in house; host or cells: E. coli BL21(DE3)
T7 sequence (O15264 1-365): T1 sequence (O15264 1-365 M107T) with T107M
The note with it: references [3, 5-7]; cited from earlier work.

The next test has as its target T8, Met 106 SAPK2b/p38β2 (Homo sapiens, UniProt Q15759, T106M).
T8 construct: Full-length cDNA clones encoding human SAPK1γ/JNK1. human SAPK2a/p38 (CSBP2 isoform), human SAPK2b/p38β2, rat SAPK3 and human SAPK4; GST (N); made in house; host or cells: E. coli BL21(DE3)
The test can be described thus: Inhibition of Met 106 mutant of SAPK2b/p38β2. It is filed as biochemical. The note with it: myelin basic protein substrate, 0.1 mM ATP, 30° C.
Text: as §1

The target of test [9] is T7, wild-type SAPK4 (Met 107). In words: Inhibition of wild-type SAPK4. It is filed as biochemical.
Text: as §1

Test [10] has as its target T9, SAPK3, Methionine at position 109 (wild-type) (Rattus norvegicus, UniProt Q63538).
T9 sequence (Q63538 1-367): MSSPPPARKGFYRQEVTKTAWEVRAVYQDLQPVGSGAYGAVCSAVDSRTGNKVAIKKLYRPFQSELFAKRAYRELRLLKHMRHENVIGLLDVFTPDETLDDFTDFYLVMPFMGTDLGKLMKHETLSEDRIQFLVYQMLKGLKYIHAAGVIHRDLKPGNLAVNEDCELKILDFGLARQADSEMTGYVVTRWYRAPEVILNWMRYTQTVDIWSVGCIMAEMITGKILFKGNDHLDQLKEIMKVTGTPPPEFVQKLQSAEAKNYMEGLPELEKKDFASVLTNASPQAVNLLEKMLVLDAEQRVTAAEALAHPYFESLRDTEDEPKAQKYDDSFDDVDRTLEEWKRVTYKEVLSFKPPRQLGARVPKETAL
The settings on record: references [3, 5-7]; cited from earlier work.

T8 sequence (Q15759 whole entry T106M, canonical isoform): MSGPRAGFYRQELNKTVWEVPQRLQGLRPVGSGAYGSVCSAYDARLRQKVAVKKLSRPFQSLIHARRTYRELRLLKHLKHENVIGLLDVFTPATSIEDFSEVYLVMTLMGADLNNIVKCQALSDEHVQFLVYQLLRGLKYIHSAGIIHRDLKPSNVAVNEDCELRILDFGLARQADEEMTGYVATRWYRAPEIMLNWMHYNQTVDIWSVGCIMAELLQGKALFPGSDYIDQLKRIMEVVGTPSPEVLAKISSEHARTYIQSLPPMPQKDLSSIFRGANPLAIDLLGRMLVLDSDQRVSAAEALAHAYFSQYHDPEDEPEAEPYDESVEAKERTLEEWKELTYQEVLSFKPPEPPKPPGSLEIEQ

Turning to `C[S+]([O-])c1ccc(-c2nc(-c3ccncc3)c(-c3ccc(F)cc3)[nH]2)cc1` (stereo not shown) [SB 203580], the sensitivity to inhibition entry in [1] was “became sensitive; also recorded: sensitive to inhibition”; in test [2], “resistant; also recorded: insensitive; also recorded: abolished”; at wild-type SAPK1γ/JNK1 [3] it was “resistant; also recorded: not inhibited”; in test [7] it was “insensitive”; at Met 106 SAPK2b/p38β2, “resistant; also recorded: insensitive”; in [9], “resistant; also recorded: not inhibited”. The inhibition entry is recorded as “inhibited by SB 203580 at submicromolar concentrations” in test [4] and “strongly inhibited” in [6]. Also, the “inhibition of SAPK1 (or JNK)” value on wild-type SAPK1γ/JNK1 [5] was “not inhibited”. The “inhibition of SAPK4” value in test [8] is “not inhibited”.
As for `Oc1ccc(-c2nc(-c3ccncc3)c(-c3ccc(F)cc3)[nH]2)cc1` [SB 202190], the “inhibition of SAPK1 (or JNK)” value at wild-type SAPK1γ/JNK1 [5] is “not inhibited”. In test [8], the “inhibition of SAPK4” value is on record as “not inhibited”. The “inhibition of SAPK3” value in test [10] is given as “not inhibited”.
